# From patent US6613317B1, “Volatile attractants for diabrotica species” (priority 1988, dated 2003)
# How the values were obtained:
# D. u. howardi adults = assay type: in vivo, Diabrotica undecimpunctata howardi; details: TEX×PEP bait with 0.1% methomyl alone or with 1% veratrole added
# Description: A noncucurbit carrier, 10-mesh corn grits (71% of which passed through a 2-mm screen), was obtained from Illinois Cereal Mills, Paris, Ill. (designated as pesticide carrier grits, 980). This carrier was impregnated with different levels of cucurbitacins by addition of varying amounts of a chloroform extract of AND×MAX fruit containing 0.12% cucurbitacins B and D (Metcalf, et al., Proc. Natl. Acad. Sci. USA, 77:3769-3772 (1980), Metcalf, et al., Environ. Entomol., 11:921-927 (1982)). The cucurbitacin-containing areas were scraped from plates, extracted in anhydrous methanol, centrifuged, and the UV absorption at 210 nm determined by UV spectrophotometry. Content of cucurbitacins was quantified from standard curves of pure cucurbitacins B, D, E and I, and E-glycoside (Metcalf, et al., Proc. Natl. Acad. Sci. USA, 77:3769-3772 (1980), Metcalf, et al., Environ. Entomol., 11:921-927 (1982)).
# The various dried, ground, and insecticide-treated baits were given preliminary field evaluation by placing uniform amounts in petri-dish halves (150-mm diameter) that were placed at random on the ground in cucurbit and corn rows heavily infested ith SCR, WCR, and SCB adults. Ten dishes were used for each treatment; the maximum dosage of dried baits used was 300 mg per dish, equivalent to […]. Mortality counts of adult beetles in the dishes were made after 20-40 h.
# [1] = test system: southern corn rootworm (SCR) adults; test: Sticky trap attraction in sweet corn plots (Example 1); assay type: in vivo, Diabrotica undecimpunctata howardi; details: for Mean number of SCR per trap (±standard deviation): n = 4
# In short: (§1)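 Field trapping in sweet-corn plots beside a Blue Hubbard squash trap crop; lures on mineral-oil-impregnated cotton wicks atop sticky paper-carton traps on 1-m posts, 4 replicates in randomized complete blocks. Beetles counted after 24 h; VIPAE/VIP/TIC mixtures and single components at 1–300 mg per trap, ANOVA/Duncan at P=0.05.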
# [2] = test system: western corn rootworm (WCR) adults; test: as above; assay type: in vivo, Diabrotica virgifera virgifera; details: for Mean number of WCR per trap (±standard deviation): n = 4
# In short: as §1
# [3] = August 4, second year, each compound 20 mg per trap
# [4] = August 7, second year, each compound 20 mg per trap
# [5] = August first year, South Farms, 24 h, single compounds 100 mg per trap, mixture 20 mg of each component
# [6] = August first year, single compounds 100 mg per trap, mixture 20 mg each component
structure (smiles),measurement,setting,value
"COc1ccccc1OC [Veratrole, 1,2-dimethoxybenzene]",mean (±SD) dead SCR beetles for 10 dishes,D. u. howardi adults,63.1±39.9
same,relative percent activity (SCR) as compared with the highest mean value for the test date,[1]; [3],15%
same,Mean number of SCR per trap (±standard deviation),[1]; [3],5.8 ± 3.4 per trap
same,relative percent activity (SCR) as compared with the highest mean value for the test date,[1]; [4],20%
same,Mean number of SCR per trap (±standard deviation),[1]; [4],8.8 ± 2.l
same,Mean number of SCR per trap (±standard deviation),[1]; [5],6.8 ± 3.6 per trap
same,relative percent activity of the mean SCR trap catch as compared with the highest mean value in the column,[1]; [6],33%
same,relative percent activity (WCR) as compared with the highest mean value for the test date,[2]; [3],39%
same,Mean number of WCR per trap (±standard deviation),[2]; [3],20.0 ± 5.7 per trap
same,relative percent activity (WCR) as compared with the highest mean value for the test date,[2]; [4],59%
same,Mean number of WCR per trap (±standard deviation),[2]; [4],18.5 ± 7.2 per trap
same,Mean number of WCR per trap (±standard deviation),[2]; [5],1.5 ± 1.0 per trap
same,relative percent activity of the mean WCR trap catch as compared with the highest mean value in the column,[2]; [6],22%
